We go through five compounds from patent publication US12252524B2, “GIP/GLP1 co-agonist compounds” (Eli Lilly and Company, priority 2018, dated 2025).

Numbered stars: 1 amine (or outer) side, 2 acyl side, 3 side chain; on linkers, the order of the positions; unused ones are H or OH. Square brackets hold non-standard residues; d marks the D form. Side chains are listed from the residue outwards. Peptide text beside a SMILES is read from it. * marks the point of attachment. C20 diacid = O=C(O)CCCCCCCCCCCCCCCCCCC(=O)*; γGlu = O=C(O)[C@H](CCC(=O)[*:2])N[*:1]; αMeL = CC(C)C[C@](C)(N)C(=O)O; AEEA = NCCOCCOCC(=O)O; Aib = CC(C)(N)C(=O)O

By EC50 is commonly meant the concentration at which the effect is half-maximal. In general, Ki refers to a dissociation constant, usually derived from enzyme kinetics or from competition with a known ligand.

Assay [1] concerns the target T1, gastric inhibitory peptide receptor (GIPR) (Homo sapiens, UniProt P48546).
T1 sequence (P48546 22-466): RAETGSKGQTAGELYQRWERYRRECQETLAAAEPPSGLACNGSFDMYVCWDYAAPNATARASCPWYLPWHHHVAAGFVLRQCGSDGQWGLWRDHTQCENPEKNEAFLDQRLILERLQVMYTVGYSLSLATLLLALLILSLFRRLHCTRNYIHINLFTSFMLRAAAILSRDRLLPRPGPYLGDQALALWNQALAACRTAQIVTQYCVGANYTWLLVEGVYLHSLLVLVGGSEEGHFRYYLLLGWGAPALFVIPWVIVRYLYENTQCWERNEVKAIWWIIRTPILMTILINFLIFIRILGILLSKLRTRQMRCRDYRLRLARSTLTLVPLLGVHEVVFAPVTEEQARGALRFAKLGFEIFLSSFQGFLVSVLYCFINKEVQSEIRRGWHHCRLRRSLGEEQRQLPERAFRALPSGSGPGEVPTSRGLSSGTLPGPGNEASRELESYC
As to the kind of experiment: cAMP pharmacological functional assay in presence of casein, hGIPR. It is filed as cell-based. The conditions noted are these: HEK293 cells expressing hGIPR, 0.1% Casein, geometric mean; read-out: hGIPR cAMP Rel EC50 nM (SEM, n).

For another assay, the target named is T2, human Gcg receptor (Homo sapiens, UniProt P47871).
T2 construct: expressed in transfected cells; crude membranes
The assay can be described thus: [125I]-Glucagon binding (SPA), human Gcg receptor. The settings on record: read-out: hGLcgR Ki, nM (SEM, n). The procedure, abridged:
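Scintillation counts are taken after membranes and WGA beads incubate and settle for 12 hours at room temperature. Buffer is 25 mM HEPES, pH 7.4, with CaCl2, MgCl2, bacitracin and Tween-20. Ki values, from four-parameter IC50 fits, are geometric means over independent days.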

The target in the next assay is T3, human GIP receptor (Homo sapiens, UniProt P48546).
T3 construct: expressed in transfected cells; crude membranes
T3 sequence (P48546 22-466): T1 sequence (P48546 22-466)
As to the kind of experiment: [125I]-GIP binding (SPA), human GIP receptor. The conditions noted are these: read-out: hGIPR Ki, nM (SEM, n).

For assay [2], the target named is human GLP-1 receptor (GLP-1R) (Homo sapiens, UniProt P43220). As to the kind of experiment: cAMP pharmacological functional assay in presence of casein, hGLP-1R. It is filed as cell-based. The conditions noted are these: HEK293 cells expressing hGLP-1R, 0.1% Casein, geometric mean; read-out: hGLP1R cAMP Rel EC50 nM (SEM, n).
Another assay deals with human GLP-1R (Homo sapiens, UniProt P43220). As to the kind of experiment: [125I]-GLP-1 binding (SPA), human GLP-1 receptor. More on the design: expressed in transfected cells; crude membranes. The settings on record: read-out: hGLP1R Ki, (nM) (SEM, n). The method, boiled down: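 Ki values are geometric means with SEM over independent replicates on different days, derived from IC50s fitted by four-parameter nonlinear regression. The assay used crude cell membranes in HEPES buffer, pH 7.4, containing CaCl2, MgCl2, bacitracin and TWEEN-20.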
Chain of human GLP-1R (P43220 24-463): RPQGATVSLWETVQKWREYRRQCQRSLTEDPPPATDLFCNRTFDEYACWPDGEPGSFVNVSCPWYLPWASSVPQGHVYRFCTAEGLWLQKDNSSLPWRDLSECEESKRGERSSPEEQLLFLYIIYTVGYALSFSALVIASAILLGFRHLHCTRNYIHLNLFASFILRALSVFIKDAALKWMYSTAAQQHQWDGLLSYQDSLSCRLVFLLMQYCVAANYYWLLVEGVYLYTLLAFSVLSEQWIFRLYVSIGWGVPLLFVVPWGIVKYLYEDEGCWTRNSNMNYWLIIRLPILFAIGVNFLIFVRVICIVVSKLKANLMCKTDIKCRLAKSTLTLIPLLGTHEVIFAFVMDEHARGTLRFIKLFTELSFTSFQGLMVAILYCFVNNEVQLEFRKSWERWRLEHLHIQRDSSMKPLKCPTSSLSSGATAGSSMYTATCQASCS

T2 sequence (P47871 26-477): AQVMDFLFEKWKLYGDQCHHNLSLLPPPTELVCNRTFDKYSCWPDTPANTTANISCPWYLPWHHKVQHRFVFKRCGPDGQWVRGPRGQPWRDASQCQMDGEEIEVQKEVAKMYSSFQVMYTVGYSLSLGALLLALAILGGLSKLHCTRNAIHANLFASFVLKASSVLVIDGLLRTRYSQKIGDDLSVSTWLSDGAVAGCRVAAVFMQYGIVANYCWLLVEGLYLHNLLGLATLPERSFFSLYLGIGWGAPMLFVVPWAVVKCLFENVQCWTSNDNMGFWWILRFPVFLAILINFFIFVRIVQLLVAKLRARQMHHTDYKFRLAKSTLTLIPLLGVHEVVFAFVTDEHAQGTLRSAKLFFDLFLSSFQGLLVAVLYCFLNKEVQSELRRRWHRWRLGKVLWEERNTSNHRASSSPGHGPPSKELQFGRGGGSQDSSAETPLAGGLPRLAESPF
Chain of human GLP-1 receptor (GLP-1R) (P43220 24-463): as the sequence (P43220 24-463) above

Consider `CC[C@H](C)[C@H](NC(=O)[C@H](CC(C)C)NC(=O)[C@H](Cc1ccc(O)cc1)NC(=O)[C@H](CCC(=O)O)NC(=O)[C@@H](NC(=O)[C@H](Cc1ccccc1)NC(=O)[C@H](C)NC(=O)C(C)(C)NC(=O)[C@H](CCC(N)=O)NC(=O)[C@H](C)NC(=O)[C@H](CCCCNC(=O)COCCOCCNC(=O)COCCOCCNC(=O)CC[C@H](NC(=O)CCCCCCCCCCCCCCCCCCC(=O)O)C(=O)O)NC(=O)[C@H](CCCCN)NC(=O)[C@H](CC(=O)O)NC(=O)[C@H](CC(C)C)NC(=O)[C@H](CC(C)C)NC(=O)[C@@H](NC(=O)[C@H](CO)NC(=O)[C@H](Cc1ccc(O)cc1)NC(=O)[C@H](CC(=O)O)NC(=O)[C@H](CO)NC(=O)[C@@H](NC(=O)[C@](C)(Cc1ccccc1)NC(=O)[C@@H](NC(=O)CNC(=O)[C@H](CCC(=O)O)NC(=O)C(C)(C)NC(=O)[C@@H](N)Cc1ccc(O)cc1)[C@@H](C)O)[C@@H](C)O)[C@@H](C)CC)[C@@H](C)CC)C(=O)N[C@@H](CCC(=O)O)C(=O)NCC(=O)NCC(=O)N1CCC[C@H]1C(=O)N[C@@H](CO)C(=O)N[C@@H](CO)C(=O)NCC(=O)N[C@@H](C)C(=O)N1CCC[C@H]1C(=O)N1CCC[C@H]1C(=O)N1CCC[C@H]1C(=O)N[C@@H](CO)C(N)=O` [Example 57], for which the EC50 in assay [1] is 0.0849 nM; in assay [2] it was 0.0668 nM. Besides, the Ki turned out to be 26.1 nM on human Gcg receptor, 0.0583 nM on human GIP receptor and 3 nM at human GLP-1R.

For the compound `CC[C@H](C)[C@H](NC(=O)[C@H](CC(C)C)NC(=O)[C@H](Cc1ccc(O)cc1)NC(=O)[C@H](CCC(=O)O)NC(=O)[C@@H](NC(=O)[C@H](Cc1ccccc1)NC(=O)[C@H](C)NC(=O)C(C)(C)NC(=O)[C@H](CCC(N)=O)NC(=O)[C@H](C)NC(=O)[C@H](CCCCNC(=O)COCCOCCNC(=O)COCCOCCNC(=O)CC[C@H](NC(=O)CCCCCCCCCCCCCCCCCCC(=O)O)C(=O)O)NC(=O)[C@H](CCCCN)NC(=O)[C@H](CC(=O)O)NC(=O)[C@H](CC(C)C)NC(=O)[C@H](CC(C)C)NC(=O)[C@H](CO)NC(=O)[C@H](CO)NC(=O)[C@H](Cc1ccc(O)cc1)NC(=O)[C@H](CC(=O)O)NC(=O)[C@H](CO)NC(=O)[C@@H](NC(=O)[C@H](Cc1ccccc1)NC(=O)[C@@H](NC(=O)CNC(=O)[C@H](CCC(=O)O)NC(=O)C(C)(C)NC(=O)[C@@H](N)Cc1ccc(O)cc1)[C@@H](C)O)[C@@H](C)O)[C@@H](C)CC)C(=O)N[C@@H](CCC(=O)O)C(=O)NCC(=O)NCC(=O)N1CCC[C@H]1C(=O)N[C@@H](CO)C(=O)N[C@@H](CO)C(=O)NCC(=O)N[C@@H](C)C(=O)N1CCC[C@H]1C(=O)N1CCC[C@H]1C(=O)N1CCC[C@H]1C(=O)N[C@@H](CO)C(N)=O` [Example 58] (H-Y[Aib]EGTFTSDYSSLLDKK([AEEA-AEEA-γGlu-C20 diacid])AQ[Aib]AFIEYLIEGGPSSGAPPPS-NH2; N-terminus assumed), the EC50 was 0.266 nM in assay [1] and 0.18 nM in assay [2]. For the same compound, the Ki at human Gcg receptor came to 339 nM; on human GIP receptor it was 0.105 nM; at human GLP-1R, 2.77 nM.

As for `CC[C@H](C)[C@H](NC(=O)[C@H](CC(C)C)NC(=O)[C@H](Cc1ccc(O)cc1)NC(=O)[C@H](CCC(=O)O)NC(=O)[C@@H](NC(=O)[C@H](Cc1ccccc1)NC(=O)[C@H](C)NC(=O)C(C)(C)NC(=O)[C@H](CCC(N)=O)NC(=O)[C@H](C)NC(=O)[C@H](CCCCNC(=O)COCCOCCNC(=O)COCCOCCNC(=O)CC[C@H](NC(=O)CCCCCCCCCCCCCCCCCCC(=O)O)C(=O)O)NC(=O)[C@H](CCC(=O)O)NC(=O)[C@H](CC(=O)O)NC(=O)[C@H](CC(C)C)NC(=O)[C@](C)(CC(C)C)NC(=O)[C@@H](NC(=O)[C@H](CO)NC(=O)[C@H](Cc1ccc(O)cc1)NC(=O)[C@H](CC(=O)O)NC(=O)[C@H](CO)NC(=O)[C@@H](NC(=O)[C@H](Cc1ccccc1)NC(=O)[C@@H](NC(=O)CNC(=O)[C@H](CCC(=O)O)NC(=O)C(C)(C)NC(=O)[C@@H](N)Cc1ccc(O)cc1)[C@@H](C)O)[C@@H](C)O)[C@@H](C)CC)[C@@H](C)CC)C(=O)N[C@@H](CCC(=O)O)C(=O)NCC(=O)NCC(=O)N1CCC[C@H]1C(=O)N[C@@H](CO)C(=O)N[C@@H](CO)C(=O)NCC(=O)N[C@@H](C)C(=O)N1CCC[C@H]1C(=O)N1CCC[C@H]1C(=O)N1CCC[C@H]1C(=O)N[C@@H](CO)C(N)=O` [Example 59] (H-Y[Aib]EGTFTSDYSI[αMeL]LDEK([AEEA-AEEA-γGlu-C20 diacid])AQ[Aib]AFIEYLIEGGPSSGAPPPS-NH2), the EC50 in assay [1] came to 0.0922 nM; in assay [2], 0.084 nM. Also, the figures for the Ki at human Gcg receptor, on human GIP receptor and on human GLP-1R were 292 nM, 0.136 nM and 8.2 nM, respectively.

On to `CC[C@H](C)[C@H](NC(=O)[C@H](CC(C)C)NC(=O)[C@H](Cc1ccc(O)cc1)NC(=O)[C@H](CCC(=O)O)NC(=O)[C@@H](NC(=O)[C@H](Cc1ccccc1)NC(=O)[C@H](C)NC(=O)C(C)(C)NC(=O)[C@H](CCC(N)=O)NC(=O)[C@H](C)NC(=O)[C@H](CCCCNC(=O)COCCOCCNC(=O)COCCOCCNC(=O)CC[C@H](NC(=O)CCCCCCCCCCCCCCCCCCC(=O)O)C(=O)O)NC(=O)C(C)(C)NC(=O)[C@H](CC(=O)O)NC(=O)[C@H](CC(C)C)NC(=O)[C@](C)(CC(C)C)NC(=O)[C@@H](NC(=O)[C@H](CO)NC(=O)[C@H](Cc1ccc(O)cc1)NC(=O)[C@H](CC(=O)O)NC(=O)[C@H](CO)NC(=O)[C@@H](NC(=O)[C@H](Cc1ccccc1)NC(=O)[C@@H](NC(=O)CNC(=O)[C@H](CCC(=O)O)NC(=O)C(C)(C)NC(=O)[C@@H](N)Cc1ccc(O)cc1)[C@@H](C)O)[C@@H](C)O)[C@@H](C)CC)[C@@H](C)CC)C(=O)N[C@@H](CCC(=O)O)C(=O)NCC(=O)NCC(=O)N1CCC[C@H]1C(=O)N[C@@H](CO)C(=O)N[C@@H](CO)C(=O)NCC(=O)N[C@@H](C)C(=O)N1CCC[C@H]1C(=O)N1CCC[C@H]1C(=O)N1CCC[C@H]1C(=O)N[C@@H](CO)C(N)=O` [Example 60] (H-Y[Aib]EGTFTSDYSI[αMeL]LD[Aib]K([AEEA-AEEA-γGlu-C20 diacid])AQ[Aib]AFIEYLIEGGPSSGAPPPS-NH2), for which the EC50 in assay [1] came out at 0.135 nM; in assay [2], 0.287 nM. Also, the inhibition constant (Ki) at human Gcg receptor is 237 nM; on human GIP receptor it was 0.0655 nM; on human GLP-1R it was 9.55 nM.

As for `CC[C@H](C)[C@H](NC(=O)[C@H](Cc1ccccc1)NC(=O)[C@H](C)NC(=O)C(C)(C)NC(=O)[C@H](CCC(N)=O)NC(=O)[C@H](C)NC(=O)[C@H](CCCCNC(=O)COCCOCCNC(=O)COCCOCCNC(=O)CC[C@H](NC(=O)CCCCCCCCCCCCCCCCCCC(=O)O)C(=O)O)NC(=O)[C@H](CO)NC(=O)[C@H](CC(=O)O)NC(=O)[C@H](CC(C)C)NC(=O)[C@](C)(CC(C)C)NC(=O)[C@@H](NC(=O)[C@H](CO)NC(=O)[C@H](Cc1ccc(O)cc1)NC(=O)[C@H](CC(=O)O)NC(=O)[C@H](CO)NC(=O)[C@@H](NC(=O)[C@H](Cc1ccccc1)NC(=O)[C@@H](NC(=O)CNC(=O)[C@H](CCC(=O)O)NC(=O)C(C)(C)NC(=O)[C@@H](N)Cc1ccc(O)cc1)[C@@H](C)O)[C@@H](C)O)[C@@H](C)CC)C(=O)N[C@@H](CCC(=O)O)C(=O)N[C@@H](Cc1ccc(O)cc1)C(=O)N[C@@H](CC(C)C)C(=O)N[C@@H](CC(C)C)C(=O)N[C@@H](CCC(=O)O)C(=O)NCC(=O)NCC(=O)N1CCC[C@H]1C(=O)N[C@@H](CO)C(=O)N[C@@H](CO)C(=O)NCC(=O)N[C@@H](C)C(=O)N1CCC[C@H]1C(=O)N1CCC[C@H]1C(=O)N1CCC[C@H]1C(=O)N[C@@H](CO)C(N)=O` [Example 61] (H-Y[Aib]EGTFTSDYSI[αMeL]LDSK([AEEA-AEEA-γGlu-C20 diacid])AQ[Aib]AFIEYLLEGGPSSGAPPPS-NH2), the EC50 was 0.0739 nM in assay [1] and 0.371 nM in assay [2]. Also, the results for the Ki at human Gcg receptor, at human GIP receptor and at human GLP-1R were 110 nM, 0.102 nM and 11.1 nM, respectively.
